Data from patent US20240043860A1, “NOVEL HYDROXYPHENYLPYRUVATE DIOXYGENASE POLYPEPTIDES AND METHODS OF USE THEREOF” (Syngenta Crop Protection AG, priority 2020, published 2024).
Values joined by “and” are separate entries in the source; they are usually repeats but may differ in a detail not shown here. Identical values can stand only once. Like-named read-outs stand apart in the source and are kept apart here.

Columns and labels:
[1] = test system: HPPD variant ALOME V162 (SEQ ID NO: 126); assay: coupled HGO assay; type: biochemical, Alopecurus myosuroides
Experimental: DNA sequences (SEQ ID NOs: 65-118, 128, 130, 131, and 133), synthesized for expression in E. coli, by GeneWiz (USA) to encode HPPD variants (SEQ ID NOs: 5-58, 122, 124, 125 and 127) derived from either Avena sativa (SEQ ID NOs: 122, 124), Alopecurus myosuroides (SEQ ID NO: 126) or Apera spica-venti (SEQ ID NOs: 123, 125) were transformed into E coli BL21 (DE3) (New England Biolabs) and grown in 0.5 ml Terrific broth +50 ug/ml Kanamycin media in a 96-deepwell block overnight (37° C., 900rpm). 25 ul of the overnight cultures were inoculated into fresh 96-deepwell block containing 1 ml Formedium Autoinduction Media (AIM). The AIM cultures were grown for 3h at 37° C. (900rpm) and then transferred to 20° C. overnight (900rpm) to allow protein expression. The overnight cultures were centrifuged and 500 ul of Cellytic B (Sigma Aldrich) was added to resuspend the cell pellets. The coupled HGO assay (Siehl et al, 2014) is used to generate IC50 values for the HPPD variants of interest.
(§1) E. coli BL21 (DE3) cells were transformed with a pET24a vector containing a C-terminally his-tagged Arabidopsis HGO gene, grown and induced overnight as described for the HPPD variants above. The cell pellet was resuspended in phosphate buffered saline at pH 7.4 containing 10% Glycerol, 1mm Tris[2-carboxyethyl] phosphine-HCl (TCEP) plus 30 mM Imidazole and lysed using lysozyme/benzonase. The extract was clarified by low speed centrifugation and purified in the same buffer down a 1 ml His Gravitrap column. The bound HGO was eluted in 0.25M imidazole and the fractions pooled and beaded into liquid nitrogen. All procedures apart from the centrifugation and beading steps were carried out under a nitrogen atmosphere.
(§2) The coupled HGO assay is carried out by adding 10 ul of HPPD extract to a 96-well plate and then adding 40 ul of reaction buffer (50 mM Bis Tris Propane, pH7.0, 25 mM sodium-L-ascorbate, 400μM mercaptoethanol, 50 μM Fe(II)SO4). The plates are left to incubate for 5 minutes on ice. […] 200 ul of HPP/HGO (197 μM hydroxyphenylpyruvic acid, 16 μl/ml Homogentisic Acid Oxidase in reaction buffer as described above) buffer is then added to the well and the reaction is regularly monitored (e.g. every 30 seconds-5 minutes) for absorbance at 330 nm for a given time period (e.g., for between 15-60 minutes). The data can then be used to calculate the IC50 value for each HPPD variant of interest.

[2] = test system: transgenic tobacco plants expressing mutant HPPD SEQ ID NO: 122; assay: spray test, herbicidal damage scoring; type: in vivo; conditions: 7 days after treatment, 100=complete death, 0=no damage, one value per event
Experimental: DNA sequences that encode these polypeptides (optimized for tobacco or, optionally, codon optimized according to a target crop such as soybean) were prepared synthetically. Each sequence was designed to include a 5′ fusion with TMV omega 5′ leader sequence such that they are flanked at the 5′ end with XhoI and at the 3′ end with KpnI to facilitate direct cloning into a suitable binary vector for Agrobacterium-based plant transformation.
For example, a master plate of Agrobacterium tumefaciens containing the HPPD expressing the binary vector is used to inoculate 10 ml LB (L broth) containing 100 mg/l Rifampicin plus 50 mg/l Kanamycin using a single bacterial colony. This is incubated overnight at 28° C. shaking at 200 rpm. This entire overnight culture is used to inoculate a 50 ml volume of LB containing the same antibiotics. Again this is cultured overnight at 28° C. shaking at 200 rpm. The Agrobacterium cells are pelleted by centrifuging at 3000 rpm for 15 minutes and then resuspended in MS (Murashige and Skoog) medium containing 30 g/l sucrose, pH 5.9 to an OD […]=0.6. This suspension is dispensed in 25 ml aliquots into petri dishes.
Once rooted, plantlets are transferred from agar and potted into 50% peat, 50% John Innes Soil No. 3 or, for example, MetroMix® 380 soil (Sun Gro Horticulture, Bellevue, WA) with slow-release fertilizer in 3 inch round or 4 inch square pots and left regularly watered to establish for 8-12d in the glass house. Glass house conditions are about 24-27° C. day; 18-21° C. night and approximately a 14h (or longer in UK summer) photoperiod.
About 20-30 TO events are produced for a number of HPPD variant genes.
Single copy events amongst the Ti plant lines are identified by their 3:1 segregation ratio (with respect to kanamycin and/or herbicide) and by quantitative RT-PCR. Seed from the thus selected Ti tobacco (var. Samsun) lines are sown in 3 inch diameter pots containing 50% peat and 50% John Innes Soil No. 3. […] HPPD expression levels were monitored by Western analysis.
Tables 4.1-4.9 show the herbicidal damage scoring on transgenic tobacco plants 7 days after treatment. A score of 100=complete death and 0=no damage observed.

[3] = target: HPPD variant AVESA V313 (SEQ ID NO: 38) (Avena sativa, UniProt A0ACD5V6K6, A327R/I340E/L359Y/P271N/R214G/V218I/V260A); assay: biochemical; type: biochemical
Experimental: (§3) 25 ul of the overnight cultures were inoculated into fresh 96-deepwell block containing 1 ml Formedium Autoinduction Media (AIM). The AIM cultures were grown for 3h at 37° C. (900rpm) and then transferred to 20° C. overnight (900rpm) to allow protein expression. The overnight cultures were centrifuged and 500 ul of Cellytic B (Sigma Aldrich) was added to resuspend the cell pellets. The coupled HGO assay (Siehl et al, 2014) is used to generate IC50 values for the HPPD variants of interest.
as §1, §2

[4] = target: HPPD variant AVESA V358 (SEQ ID NO: 56) (Avena sativa, UniProt A0ACD5V6K6, A327R/I340E/L359M/P271N/R214G/S304T/V218I/V260A); assay: biochemical; type: biochemical
Experimental: as §3, §1, §2

[5] = target: HPPD variant AVESA V162 (SEQ ID NO: 122) (Avena sativa, UniProt A0ACD5V6K6, A327R/I340E/L359M/V218I); assay: biochemical; type: biochemical
Experimental: as §3, §1, §2

[6] = target: HPPD variant AVESA V332 (SEQ ID NO: 44) (Avena sativa, UniProt A0ACD5V6K6, A327R/I340E/K404N/L359M/P271N/R214G/V218I/V260A); assay: biochemical; type: biochemical
Experimental: as §3, §1, §2

[7] = target: HPPD variant AVESA V180 (SEQ ID NO: 124) (Avena sativa, UniProt A0ACD5V6K6, A327R/G411A/I340E/L359M/V218I); assay: biochemical; type: biochemical
Experimental: as §3, §1, §2

[8] = AVESA V313, SEQ ID NO: 38, read-out: IC50
[9] = AVESA V358, SEQ ID NO: 56, read-out: IC50
[10] = AVESA V162, SEQ ID NO: 122, read-out: IC50
[11] = AVESA V332, SEQ ID NO: 44, read-out: IC50
[12] = AVESA V180, SEQ ID NO: 124, read-out: IC50

Chain of HPPD variant AVESA V162 (SEQ ID NO: 122) (A0ACD5V6K6 entry or part of it V218I/A327R/I340E/L359M): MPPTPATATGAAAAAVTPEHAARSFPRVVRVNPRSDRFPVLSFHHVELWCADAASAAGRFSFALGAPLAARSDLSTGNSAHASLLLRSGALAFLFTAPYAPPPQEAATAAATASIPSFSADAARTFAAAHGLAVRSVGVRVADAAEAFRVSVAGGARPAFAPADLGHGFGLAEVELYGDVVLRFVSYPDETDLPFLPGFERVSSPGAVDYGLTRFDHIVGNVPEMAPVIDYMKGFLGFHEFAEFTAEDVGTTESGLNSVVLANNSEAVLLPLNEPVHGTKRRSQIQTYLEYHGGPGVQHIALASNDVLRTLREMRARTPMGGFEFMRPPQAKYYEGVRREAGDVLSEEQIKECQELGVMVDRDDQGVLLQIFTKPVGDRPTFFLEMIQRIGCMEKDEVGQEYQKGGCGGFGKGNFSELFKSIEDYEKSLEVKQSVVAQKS
Chain of HPPD variant AVESA V332 (SEQ ID NO: 44) (A0ACD5V6K6 entry or part of it R214G/V218I/V260A/P271N/A327R/I340E/L359M/K404N): as the sequence (A0ACD5V6K6 entry or part of it V218I/A327R/I340E/L359M) above, with R214G, V260A, P271N, K404N counted along it
Chain of HPPD variant AVESA V180 (SEQ ID NO: 124) (A0ACD5V6K6 entry or part of it V218I/A327R/I340E/L359M/G411A): as the sequence (A0ACD5V6K6 entry or part of it V218I/A327R/I340E/L359M) above, with G411A counted along it
Chain of HPPD variant AVESA V358 (SEQ ID NO: 56) (A0ACD5V6K6 entry or part of it R214G/V218I/V260A/P271N/S304T/A327R/I340E/L359M): as the sequence (A0ACD5V6K6 entry or part of it V218I/A327R/I340E/L359M) above, with R214G, V260A, P271N, S304T counted along it
Chain of HPPD variant AVESA V313 (SEQ ID NO: 38) (A0ACD5V6K6 entry or part of it R214G/V218I/V260A/P271N/A327R/I340E/L359Y): as the sequence (A0ACD5V6K6 entry or part of it V218I/A327R/I340E/L359M) above, with R214G, V260A, P271N, M359Y counted along it

| Compound | IC50 [1] [µM] | herbicidal damage scoring, Herbicide C 100 g/ha ([2]; Table 3.1, plants expressing SEQ ID 122) | herbicidal damage scoring, Herbicide C (200 g/ha) ([2]; Table 4.4, SEQ ID NO: 122) | IC50 [3, 8] [µM] | IC50 [4, 9] [µM] | IC50 [5, 10] [µM] | IC50 [6, 11] [µM] | IC50 [7, 12] [µM] | herbicidal damage scoring, Herbicide D (2000 g/ha) ([2]; Table 4.4, SEQ ID NO: 122) | IC50 [3] [µM] | IC50 [4] [µM] | IC50 [5] [µM] | IC50 [6] [µM] | IC50 [7] [µM] | herbicidal damage scoring, Bicyclopyrone (800 g/ha) ([2]; Table 4.4, SEQ ID NO: 122) |
| --- | --- | --- | --- | --- | --- | --- | --- | --- | --- | --- | --- | --- | --- | --- | --- |
| COc1ccc(-n2nc(C)cc(C(=O)C3C(=O)CCCC3=O)c2=O)cc1OC [Herbicide C, dioxopyritrione] | 0.25 | 90 and 70 and 95 and 96 | 99 and 95 and 97 and 98 | ~0.2 | < 0.19 | 0.25 | > 50 | 0.61 |  |  |  |  |  |  |  |
| Cn1nnnc1NC(=O)c1ccc(C(F)(F)F)nc1-n1cncn1 [Herbicide D, N-(1-methyltetrazol-5-yl)-2-(1,2,4-triazol-1-yl)-6-(trifluoromethyl)pyridine-3-carboxamide] | 10.5 |  |  |  |  |  |  |  | 80 and 70 and 65 and 75 and 85 and 60 | 205 | 177 | 6.73 | 134 | > 500 |  |
| bicyclopyrone | 0.53 |  |  | < 0.39 | < 0.39 | 0.38 | 102 | 55.6 |  |  |  |  |  |  | 60 and 50 and 55 and 65 and 35 and 70 and 40 |
